Data as given in PubChem BioAssay (NCI).
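Exposure lasted 48 hours, with cells grown in 96-well plates and compounds tested at five concentrations. Here, GI50 denotes the concentration required for 50% inhibition of growth. Definition used: TGI = concentration required for complete inhibition of growth.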

Key:
Experiment in all cases: inhibition of tumour cell growth, NCI panel, 48 h
NCI-H23 lung = tested on: NCI-H23 lung
NCI-H460 lung = tested on: NCI-H460 lung
NCI-H522 lung = tested on: NCI-H522 lung
NCI/ADR-RES ovarian = tested on: NCI/ADR-RES ovarian
OVCAR-3 ovarian = tested on: OVCAR-3 ovarian
OVCAR-4 ovarian = tested on: OVCAR-4 ovarian
OVCAR-5 ovarian = tested on: OVCAR-5 ovarian
OVCAR-8 ovarian = tested on: OVCAR-8 ovarian
PC-3 prostate = tested on: PC-3 prostate
RPMI-8226 leukemia = tested on: RPMI-8226 leukemia
RXF 393 renal = tested on: RXF 393 renal
SF-268 CNS = tested on: SF-268 CNS
SF-295 CNS = tested on: SF-295 CNS
SF-539 CNS = tested on: SF-539 CNS
SK-MEL-2 melanoma = tested on: SK-MEL-2 melanoma
SK-MEL-28 melanoma = tested on: SK-MEL-28 melanoma
SK-MEL-5 melanoma = tested on: SK-MEL-5 melanoma
SK-OV-3 ovarian = tested on: SK-OV-3 ovarian
SN12C renal = tested on: SN12C renal
SNB-19 CNS = tested on: SNB-19 CNS
SNB-75 CNS = tested on: SNB-75 CNS
SR leukemia = tested on: SR leukemia
SW-620 colon = tested on: SW-620 colon
T-47D breast = tested on: T-47D breast
TK-10 renal = tested on: TK-10 renal
U251 CNS = tested on: U251 CNS
UACC-257 melanoma = tested on: UACC-257 melanoma
UACC-62 melanoma = tested on: UACC-62 melanoma
UO-31 renal = tested on: UO-31 renal

## CC1=C2C(=O)[C@](C)(CO)C=C2C(=O)[C@](C)(O)C12CC2
NCI-H23 lung
  TGI: 3.57 µM
NCI-H460 lung
  GI50: 2.49 µM
  TGI: 7.21 µM
NCI-H522 lung
  GI50: 2.04 µM
  TGI: 4.31 µM
NCI/ADR-RES ovarian
  GI50: 1.89 µM
  TGI: 4.02 µM
OVCAR-3 ovarian
  GI50: 1.8 µM
  TGI: 3.26 µM
OVCAR-4 ovarian
  GI50: 1.91 µM
  TGI: 3.36 µM
OVCAR-5 ovarian
  GI50: 2.53 µM
  TGI: 6.67 µM
OVCAR-8 ovarian
  GI50: 2.62 µM
  TGI: 8.31 µM
PC-3 prostate
  GI50: 2.83 µM
  TGI: 9.03 µM
RPMI-8226 leukemia
  GI50: 2.28 µM
  TGI: 5.63 µM
RXF 393 renal
  GI50: 1.88 µM
  TGI: 3.52 µM
SF-268 CNS
  GI50: 2.49 µM
  TGI: 7.05 µM
SF-295 CNS
  GI50: 2.22 µM
  TGI: 5.2 µM
SF-539 CNS
  GI50: 1.82 µM
  TGI: 3.54 µM
SK-MEL-2 melanoma
  GI50: 2.39 µM
  TGI: 5.2 µM
SK-MEL-28 melanoma
  GI50: 2.06 µM
  TGI: 4.19 µM
SK-MEL-5 melanoma
  GI50: 1.81 µM
  TGI: 3.29 µM
SK-OV-3 ovarian
  GI50: 3.36 µM
  TGI: 10.9 µM
SN12C renal
  GI50: 2.19 µM
  TGI: 5.62 µM
SNB-19 CNS
  GI50: 3.05 µM
  TGI: 10.5 µM
SNB-75 CNS
  GI50: 1.26 µM
  TGI: 3.94 µM
SR leukemia
  GI50: 2.52 µM
  TGI: 17.7 µM
SW-620 colon
  GI50: 1.86 µM
  TGI: 3.96 µM
T-47D breast
  GI50: 2.33 µM
  TGI: 6.42 µM
TK-10 renal
  GI50: 2.23 µM
  TGI: 5.63 µM
U251 CNS
  GI50: 2.52 µM
  TGI: 7.48 µM
UACC-257 melanoma
  GI50: 2.59 µM
  TGI: 7.35 µM
UACC-62 melanoma
  GI50: 1.88 µM
  TGI: 3.89 µM
UO-31 renal
  GI50: 1.66 µM
  TGI: 3.17 µM
